Numbers after ± are expanded uncertainties.
Details: Liquid

For `CC(C)C(=O)O` [2-methylpropanoic acid], the “vapor or sublimation pressure” value (375.21 K) was 14.55 ± 0.57 kPa, the “vapor or sublimation pressure” value (382.14 K) was 19.58 ± 0.59 kPa and the “vapor or sublimation pressure” value (391.77 K) was 29.65 ± 0.64 kPa. The “vapor or sublimation pressure” value (399.43 K) was 39.72 ± 0.7 kPa, the “vapor or sublimation pressure” value (405.44 K) was 49.79 ± 0.75 kPa and the “vapor or sublimation pressure” value (410.75 K) was 59.85 ± 0.8 kPa. The “vapor or sublimation pressure” value (415.51 K) was 69.92 ± 0.85 kPa, the “vapor or sublimation pressure” value (419.77 K) was 79.99 ± 0.9 kPa and the “vapor or sublimation pressure” value (423.36 K) was 90.07 ± 0.95 kPa. The “vapor or sublimation pressure” value (424.86 K) was 95.1 ± 0.98 kPa and the “vapor or sublimation pressure” value (426.16 K) was 100.59 ± 1 kPa.
In the case of `CC(C)CC(=O)O` [3-methylbutanoic acid], the “vapor or sublimation pressure” value (396.05 K) is reported as 14.56 ± 0.57 kPa, the “vapor or sublimation pressure” value (402.9 K) is reported as 19.59 ± 0.59 kPa and the “vapor or sublimation pressure” value (412.87 K) is reported as 29.65 ± 0.64 kPa. For the same molecule, the “vapor or sublimation pressure” value (420.7 K) was 39.72 ± 0.7 kPa, the “vapor or sublimation pressure” value (427.18 K) was 49.78 ± 0.75 kPa and the “vapor or sublimation pressure” value (432.62 K) was 59.86 ± 0.8 kPa. For the same molecule, the “vapor or sublimation pressure” value (437.44 K) was 69.92 ± 0.85 kPa, the “vapor or sublimation pressure” value (441.6 K) was 79.99 ± 0.9 kPa and the “vapor or sublimation pressure” value (445.16 K) was 90.07 ± 0.95 kPa. For the same molecule, the “vapor or sublimation pressure” value (446.6 K) was 95.1 ± 0.98 kPa and the “vapor or sublimation pressure” value (447.92 K) was 100.08 ± 1 kPa.
In the case of `CCCC(=O)O` [butanoic acid], the “vapor or sublimation pressure” value (383.55 K) is reported as 14.56 ± 0.57 kPa, the “vapor or sublimation pressure” value (390.87 K) is reported as 19.58 ± 0.59 kPa and the “vapor or sublimation pressure” value (401.32 K) is reported as 29.65 ± 0.64 kPa. The “vapor or sublimation pressure” value (409 K) was 39.72 ± 0.7 kPa, the “vapor or sublimation pressure” value (415 K) was 49.79 ± 0.75 kPa and the “vapor or sublimation pressure” value (420.22 K) was 59.86 ± 0.8 kPa. The “vapor or sublimation pressure” value (424.81 K) was 69.92 ± 0.85 kPa, the “vapor or sublimation pressure” value (428.96 K) was 79.99 ± 0.9 kPa and the “vapor or sublimation pressure” value (432.61 K) was 90.07 ± 0.95 kPa. The “vapor or sublimation pressure” value (434.51 K) was 95.1 ± 0.97 kPa and the “vapor or sublimation pressure” value (436.05 K) was 100.04 ± 1 kPa.
For `CCCCCCC(=O)O` [heptanoic acid], the “vapor or sublimation pressure” value (413.48 K) was 4.7 ± 0.52 kPa, the “vapor or sublimation pressure” value (426.48 K) was 8.63 ± 0.54 kPa and the “vapor or sublimation pressure” value (435.07 K) was 12.56 ± 0.56 kPa. The “vapor or sublimation pressure” value (441.33 K) was 16.57 ± 0.58 kPa, the “vapor or sublimation pressure” value (446.4 K) was 20.63 ± 0.6 kPa and the “vapor or sublimation pressure” value (451 K) was 24.65 ± 0.62 kPa. For the same molecule, the “vapor or sublimation pressure” value (453.8 K) was 27.67 ± 0.63 kPa.
For `CCCCCC(=O)O` [hexanoic acid], the “vapor or sublimation pressure” value (413.4 K) was 9.52 ± 0.54 kPa, the “vapor or sublimation pressure” value (422.88 K) was 14.56 ± 0.57 kPa and the “vapor or sublimation pressure” value (429.92 K) was 19.59 ± 0.59 kPa. The “vapor or sublimation pressure” value (435.62 K) was 24.63 ± 0.62 kPa, the “vapor or sublimation pressure” value (440.03 K) was 29.64 ± 0.64 kPa and the “vapor or sublimation pressure” value (444.26 K) was 34.68 ± 0.67 kPa. For the same molecule, the “vapor or sublimation pressure” value (447.88 K) was 39.72 ± 0.69 kPa and the “vapor or sublimation pressure” value (451.43 K) was 44.75 ± 0.72 kPa.
For `CCCCC(=O)O` [pentanoic acid], the “vapor or sublimation pressure” value (403.15 K) was 14.56 ± 0.57 kPa, the “vapor or sublimation pressure” value (410.71 K) was 19.59 ± 0.59 kPa and the “vapor or sublimation pressure” value (417.07 K) was 24.63 ± 0.62 kPa. The “vapor or sublimation pressure” value (422.19 K) was 29.65 ± 0.65 kPa, the “vapor or sublimation pressure” value (430.08 K) was 39.72 ± 0.7 kPa and the “vapor or sublimation pressure” value (436.48 K) was 49.78 ± 0.75 kPa. For the same molecule, the “vapor or sublimation pressure” value (441.89 K) was 59.85 ± 0.8 kPa, the “vapor or sublimation pressure” value (446.45 K) was 69.92 ± 0.85 kPa and the “vapor or sublimation pressure” value (448.48 K) was 74.96 ± 0.88 kPa. For the same molecule, the “vapor or sublimation pressure” value (450.35 K) was 79.99 ± 0.9 kPa and the “vapor or sublimation pressure” value (451.92 K) was 85.03 ± 0.93 kPa.
In the case of `CCC(=O)O` [propanoic acid], the “vapor or sublimation pressure” value (361.52 K) is reported as 14.56 ± 0.57 kPa, the “vapor or sublimation pressure” value (368.37 K) is reported as 19.58 ± 0.59 kPa and the “vapor or sublimation pressure” value (378.95 K) is reported as 29.65 ± 0.64 kPa. The “vapor or sublimation pressure” value (386.74 K) was 39.73 ± 0.7 kPa, the “vapor or sublimation pressure” value (392.93 K) was 49.79 ± 0.75 kPa and the “vapor or sublimation pressure” value (398.09 K) was 59.86 ± 0.8 kPa. For the same molecule, the “vapor or sublimation pressure” value (402.65 K) was 69.92 ± 0.85 kPa, the “vapor or sublimation pressure” value (406.8 K) was 79.99 ± 0.9 kPa and the “vapor or sublimation pressure” value (410.33 K) was 90.07 ± 0.95 kPa. The “vapor or sublimation pressure” value (411.97 K) was 95.1 ± 0.98 kPa and the “vapor or sublimation pressure” value (413.74 K) was 101.21 ± 1 kPa.

— the NIST ThermoML archive (doi:10.1021/je034180e)
